Test system: NIH3T3
Test: Cell viability after paraquat (CellTiter-Blue)
Format: cell-based, mouse

Clc1ccc2c(c1)OCC(c1ccc(-c3ccccc3)cc1)=N2 [CA39]
protection against paraquat, compound added after the insult (2 μM or 10 μM, compared with AR7): significantly higher protection than AR7
cell death by paraquat, compound administered before the insult (12 h treatment with 2 μM or 10 μM before PQ): reduced cell death

Source: paper PMC9304322, “Targeting retinoic acid receptor alpha-corepressor interaction activates chaperone-mediated autophagy and protects against retinal degeneration” (Nature Communications, 2022)
